In PubChem BioAssay AID1259407 (Chemical Carcinogenesis Research Information System (CCRIS), 2018) one finds mutagenic call data, which are given here for seven compounds.

The source made the active and inactive calls. No rule for the calls is given here.

The series concerns CCRIS mutagenicity, Ames/micronucleus/aberration tests. The experiment in a line: CCRIS mutagenicity studies.
[1] abbreviates: Test System: AMES SALMONELLA TYPHIMURIUM, Strain/Indicator: TA98, Metabolic Activation: NONE, Method: STANDARD PLATE.
Where [2] appears, read: Test System: AMES SALMONELLA TYPHIMURIUM, Strain/Indicator: TA98, Metabolic Activation: S-9, Method: STANDARD PLATE.
Setting [3] is: Test System: AMES SALMONELLA TYPHIMURIUM, Strain/Indicator: TA100, Metabolic Activation: NONE, Method: STANDARD PLATE.
[4] abbreviates: Test System: AMES SALMONELLA TYPHIMURIUM, Strain/Indicator: TA100, Metabolic Activation: S-9, Method: STANDARD PLATE.
[5] abbreviates: Test System: AMES SALMONELLA TYPHIMURIUM, Strain/Indicator: TA1535, Metabolic Activation: NONE, Method: STANDARD PLATE.
Setting [6] is: Test System: AMES SALMONELLA TYPHIMURIUM, Strain/Indicator: TA1535, Metabolic Activation: S-9, Method: STANDARD PLATE.
The mark [7] stands for this setting: Test System: AMES SALMONELLA TYPHIMURIUM, Strain/Indicator: TA100, Metabolic Activation: NONE, Method: PREINCUBATION
Where [8] appears, read: Test System: AMES SALMONELLA TYPHIMURIUM, Strain/Indicator: TA1535, Metabolic Activation: NONE, Method: PREINCUBATION

Consider `CCSCCSP(=O)(OC)OC`, for which the mutagenic call (Test System: AMES SALMONELLA TYPHIMURIUM, Strain/Indicator: TA97A, Metabolic Activation: NONE, Method: STANDARD PLATE) is “inactive; negative”; the mutagenic call (Test System: AMES SALMONELLA TYPHIMURIUM, Strain/Indicator: TA97A, Metabolic Activation: PLANT, HOMOGENATE, S-14, Method: STANDARD PLATE) is “inactive; negative”; the mutagenic call (Test System: AMES SALMONELLA TYPHIMURIUM, Strain/Indicator: TA97A, Metabolic Activation: S-9, Method: STANDARD PLATE) was “inactive; negative”; the mutagenic call under setting [1] is “inactive; negative”; the mutagenic call (Test System: AMES SALMONELLA TYPHIMURIUM, Strain/Indicator: TA98, Metabolic Activation: PLANT, HOMOGENATE, S-14, Method: STANDARD PLATE) was “inactive; negative”; the mutagenic call (Test System: AMES SALMONELLA TYPHIMURIUM, Strain/Indicator: TA98, Metabolic Activation: RAT, LIVER, S-9, Method: STANDARD PLATE) is “inactive; negative”. Moreover, the mutagenic call reads like this: under setting [2], “inactive; negative”; (Test System: AMES SALMONELLA TYPHIMURIUM, Strain/Indicator: TA98, Metabolic Activation: WHEAT SEEDLING, S-14, Method: STANDARD PLATE) “inactive; negative”; under setting [3], “inactive; negative”; (Test System: AMES SALMONELLA TYPHIMURIUM, Strain/Indicator: TA100, Metabolic Activation: PLANT, HOMOGENATE, S-14, Method: STANDARD PLATE) “inactive; negative”; under setting [4], “inactive; negative”; (Test System: AMES SALMONELLA TYPHIMURIUM, Strain/Indicator: TA102, Metabolic Activation: NONE, Method: STANDARD PLATE) “inactive; negative”. The mutagenic call (Test System: AMES SALMONELLA TYPHIMURIUM, Strain/Indicator: TA102, Metabolic Activation: RAT, LIVER, S-9, Method: STANDARD PLATE) was “inactive; negative”; the mutagenic call (Test System: AMES SALMONELLA TYPHIMURIUM, Strain/Indicator: TA102, Metabolic Activation: WHEAT SEEDLING, S-14, Method: STANDARD PLATE) is “inactive; negative”; the mutagenic call under setting [5] is “inactive; negative”; the mutagenic call (Test System: AMES SALMONELLA TYPHIMURIUM, Strain/Indicator: TA1535, Metabolic Activation: PLANT, HOMOGENATE, S-14, Method: STANDARD PLATE) is “inactive; negative”; the mutagenic call (Test System: AMES SALMONELLA TYPHIMURIUM, Strain/Indicator: TA1535, Metabolic Activation: RAT, LIVER, S-9, Method: STANDARD PLATE) was “inactive; negative”; the mutagenic call under setting [6] was “inactive; negative”. Besides, the mutagenic call (Test System: AMES SALMONELLA TYPHIMURIUM, Strain/Indicator: TA1535, Metabolic Activation: WHEAT SEEDLING, S-14, Method: STANDARD PLATE) was “inactive; negative”.
As to `Oc1ccc2ccc3c4c(ccc3c2c1)[C@@H](O)[C@H](O)C=C4`, the mutagenic call by setting is: under setting [1], “inactive; negative”; (Test System: AMES SALMONELLA TYPHIMURIUM, Strain/Indicator: TA98, Metabolic Activation: RAT, LIVER, S-9, AROCLOR 1254, Method: STANDARD PLATE) “active; positive”; under setting [3], “inactive; negative”; (Test System: AMES SALMONELLA TYPHIMURIUM, Strain/Indicator: TA100, Metabolic Activation: RAT, LIVER, S-9, AROCLOR 1254, Method: STANDARD PLATE) “active; positive”.
Take `c1ccc([As+](c2ccccc2)(c2ccccc2)c2ccccc2)cc1`: the mutagenic call (Test System: Mouse lymphoma, Strain/Indicator: L5178Y (TK+/TK-), Metabolic Activation: None, Method: Microwell) was “inactive; negative”.
As for `Nc1snc2ccc(Cl)cc12`, the mutagenic call by setting is: under setting [1], “inactive; negative”; under setting [2], “active; positive”; under setting [3], “inactive; negative”; under setting [4], “active; positive”; under setting [5], “inactive; negative”; under setting [6], “inactive; negative”. The mutagenic call by setting is: (Test System: AMES SALMONELLA TYPHIMURIUM, Strain/Indicator: TA1537, Metabolic Activation: NONE, Method: STANDARD PLATE) “inactive; negative”; (Test System: AMES SALMONELLA TYPHIMURIUM, Strain/Indicator: TA1537, Metabolic Activation: S-9, Method: STANDARD PLATE) “active; positive”.
Regarding `O=C(O)CCC(=O)OC[C@@H](NC(=O)C(Cl)Cl)[C@H](O)c1ccc([N+](=O)[O-])cc1`, the mutagenic call was “inactive; negative” (Test System: AMES SALMONELLA TYPHIMURIUM, Strain/Indicator: TA98, Metabolic Activation: HAMSTER, LIVER, S-9, AROCLOR 1254 (10%), Method: PREINCUBATION); “inactive; negative” (Test System: AMES SALMONELLA TYPHIMURIUM, Strain/Indicator: TA98, Metabolic Activation: NONE, Method: PREINCUBATION); “inactive; negative” (Test System: AMES SALMONELLA TYPHIMURIUM, Strain/Indicator: TA98, Metabolic Activation: RAT, LIVER, S-9, AROCLOR 1254 (10%), Method: PREINCUBATION); “inactive; negative” (Test System: AMES SALMONELLA TYPHIMURIUM, Strain/Indicator: TA100, Metabolic Activation: HAMSTER, LIVER, S-9, AROCLOR 1254 (10%), Method: PREINCUBATION); “inactive; negative” under setting [7]; “inactive; negative” (Test System: AMES SALMONELLA TYPHIMURIUM, Strain/Indicator: TA100, Metabolic Activation: RAT, LIVER, S-9, AROCLOR 1254 (10%), Method: PREINCUBATION). For the same compound, the mutagenic call is “inactive; negative” (Test System: AMES SALMONELLA TYPHIMURIUM, Strain/Indicator: TA1535, Metabolic Activation: HAMSTER, LIVER, S-9, AROCLOR 1254 (10%), Method: PREINCUBATION); “inactive; negative” under setting [8]; “inactive; negative” (Test System: AMES SALMONELLA TYPHIMURIUM, Strain/Indicator: TA1535, Metabolic Activation: RAT, LIVER, S-9, AROCLOR 1254 (10%), Method: PREINCUBATION); “inactive; negative” (Test System: AMES SALMONELLA TYPHIMURIUM, Strain/Indicator: TA1537, Metabolic Activation: HAMSTER, LIVER, S-9, AROCLOR 1254 (10%), Method: PREINCUBATION); “inactive; negative” (Test System: AMES SALMONELLA TYPHIMURIUM, Strain/Indicator: TA1537, Metabolic Activation: NONE, Method: PREINCUBATION); “inactive; negative” (Test System: AMES SALMONELLA TYPHIMURIUM, Strain/Indicator: TA1537, Metabolic Activation: RAT, LIVER, S-9, AROCLOR 1254 (10%), Method: PREINCUBATION). Besides, the mutagenic call was “active; positive” (Test System: MOUSE LYMPHOMA, Strain/Indicator: L5178Y (TK+/TK-), Metabolic Activation: NONE, Method: SUSPENSION/PLATE); “active; positive” (Test System: MOUSE LYMPHOMA, Strain/Indicator: L5178Y (TK+/TK-), Metabolic Activation: RAT, LIVER, S-9, AROCLOR 1254, Method: SUSPENSION/PLATE); “active; positive” (Test System: MOUSE LYMPHOMA, Strain/Indicator: L5178Y (TK+/TK-), Metabolic Activation: RAT, LIVER, S-9, Method: SUSPENSION/PLATE).
With `Cc1ccc(C2CO2)cc1C` (stereo not given), the mutagenic call (Test System: E. COLI, Strain/Indicator: WP2, Metabolic Activation: NONE, Method: STANDARD PLATE) is “active; positive” and the mutagenic call (Test System: E. COLI, Strain/Indicator: WP2 UVRA, Metabolic Activation: NONE, Method: STANDARD PLATE) was “active; positive”.
Consider `CCCCCCC(C)(C)C(=O)OCC1CO1` (stereo not given), for which the mutagenic call was “active; positive” (Test System: AMES SALMONELLA TYPHIMURIUM, Strain/Indicator: TA100, Metabolic Activation: HAMSTER, LIVER, S-9, AROCLOR 1254 (30%), Method: PREINCUBATION); “inactive; negative” under setting [7]; “active; positive” (Test System: AMES SALMONELLA TYPHIMURIUM, Strain/Indicator: TA100, Metabolic Activation: RAT, LIVER, S-9, AROCLOR 1254 (30%), Method: PREINCUBATION); “active; positive” (Test System: AMES SALMONELLA TYPHIMURIUM, Strain/Indicator: TA1535, Metabolic Activation: HAMSTER, LIVER, S-9, AROCLOR 1254 (30%), Method: PREINCUBATION); “inactive; negative” under setting [8]; “active; positive” (Test System: AMES SALMONELLA TYPHIMURIUM, Strain/Indicator: TA1535, Metabolic Activation: RAT, LIVER, S-9, AROCLOR 1254 (30%), Method: PREINCUBATION).
